Measured values reported in patent publication US12636261B2, “Treatment of inflammation initiated by the spinal cord injury, the traumatic brain injury, stroke, in inhibition of cerebral and spinal cord edema and of inflammation in neurodegenerative, immune mediated and infectious diseases of the central nervous system” (priority 2021, dated 2026).
Where two headings read alike, the source gives them in different places.

Legend:
[1] = system: rat model of SCI (balloon crush spinal cord injury); test: Hind End Locomotor test in the rat model of SCI; type: in vivo, rat (Long Evans); details: 5 mg/rat/day oral (2.5 mg twice a day in jello), treatment groups 2-8 weeks post-SCI; ANOVA
Experimental: In the Hind End Locomotor test, performed once every day in unrestrained rats in the cage, the motor function is measured with movements of both hind legs scored 0-6 with 0=complete paralysis and 6=normal gait [Kwiecien et al, 2019, 2020b, 2020c].
(§1) Healthy male Long Evans rats aged 12 weeks, 330-360 g, were offered a fruit flavored jello cube twice a day for 1 week prior to the surgery and were separated in individual cages 3 days before the surgery. Rats were induced with 5% isoflurane in 95% oxygen flowing at a rate of 1 liter per minute and maintained at 3.5% isoflurane in 96.5% oxygen. The anaesthetized rats had the skin on the back shaved and prepared for surgery with 70% ethyl alcohol and 10% iodine swabs. The skin was cut over the caudal thoracic and lumbar spine and spinal muscles dissected from the vertebral spine of the thoracic 10 (T10) vertebrum and the dorsal arches of this vertebrum removed. […] In the initial experiment designed to determine the anti-inflammatory effect of 0.2, 1.0 and 5 mg per day of xanthohumol (Sigma-Aldrich) after the surgery, the rats were offered a jello cube with half of the above dose twice a day, at 8-9 hours and 15-16 hours intervals, and the consumption of the jello cube was observed and recorded every day for 7 days. […]
1. […] The motor function of the hind limbs was scored from 0-6 where 0=complete paralysis of both hind legs and 6=normal locomotion.

[2] = system: rat model of SCI (balloon crush spinal cord injury); test: Toe Pinch Withdrawal test in the rat model of SCI; type: in vivo, rat (Long Evans); details: 5 mg/rat/day oral, treatment groups 2-8 weeks post-SCI; ANOVA
From the text: In the Toe Pinch Withdrawal test, performed once every day in rats held by the tail, the sensory function and the strength of both hind limbs are scored 0-6 with 0=complete loss of reaction to the toe pinch and 6=strong, normal withdrawal in both legs after the toe pinch [Kwiecien et al, 2019, 2020b, 2020c].
as §1, with “oxygen.” for “oxygen. The anaesthetized rats had the skin on the back shaved and prepared for surgery with 70% ethyl alcohol and 10% iodine swabs. The skin was cut over the caudal thoracic and lumbar spine and spinal muscles dissected from the vertebral spine of the thoracic 10 (T10) vertebrum and the dorsal arches of this vertebrum removed.”
2. The Toe Pinch Withdrawal test [Kwiecien et al, 2021c] was performed once a day in rats held by the tail in the cage and the presence and strength of both hind legs scored 0-6 where 0=no response to the toe pinch and 6=strong, normal withdrawal response to the toe pinch in both legs.

[3] = system: rat model of SCI (balloon crush spinal cord injury); test: Duration of Paralysis of the Urinary Bladder in SCI rats; type: in vivo, rat (Long Evans); details: 5 mg/rat/day oral
From the text: as §1, with “removed. A 3Fogarty catheter was inserted via this laminectomy over the intact dura towards the head to place the caudal edge of the 3 mm long balloon at 1 cm rostral to the laminectomy.” for “removed.”
4. The duration of the distention of the urinary bladder that required manual voiding until the normal function of the urinary bladder was restored, in days, was recorded.

[4] = Body Weight Change after the SCI surgery; type: in vivo, rat (Long Evans); details: 5 mg/rat/day oral
Experimental: The Body Weight Change after the SCI surgery is recorded every 3rd day [Kwiecien et al, 2019, 2020b 2021c].
as §1, with “removed. A 3Fogarty catheter was inserted via this laminectomy over the intact dura towards the head to place the caudal edge of the 3 mm long balloon at 1 cm rostral to the laminectomy.” for “removed.”

[5] = system: phagocytic macrophages in the cavity of injury (COI); test: Macrophage Count in the Cavity of Injury (COI), histology LFB+H&E; type: in vivo, rat (Long Evans); details: for macrophage numbers in the COI, % of the untreated controls (100%): 7 days post-SCI
Experimental: The histologic examination is performed in the series of consecutive sections, […], of the spinal cord including the lesion, stained with luxol fast blue and counterstained with hematoxylin and eosin (LFB+H&E). A necrotic and hemorrhagic lesion deep in the spinal cord is infiltrated starting at the day 3, by numerous inflammatory, CD68+/CD163− macrophages that phagocytize myelin-rich necrotic debris and red blood cells. The numbers of macrophages rapidly increase and remain high for 4 weeks after SCI after which they gradually decline [Kwiecien et al, 2020a]. Within the first week post-SCI the deep lesion is transformed into a cavity of injury (COI) when it starts to accumulate excess water from edema in the surrounding spinal cord [Kwiecien et al, 2020a, 2021d]. The macrophage count is performed in a COI in the injured spinal cord of untreated and treated rats in a standardized fashion at fixed periods of time post-surgery to determine a degree of reduction of macrophage numbers related to a tested anti-inflammatory agent [Kwiecien et al, 2019; 2020a, 2020b, 2021c]. This reduction in numbers of macrophages plotted against such numbers in controls is reliably indicative of a therapeutic effect of an anti-inflammatory agent.
Healthy male Long Evans rats aged 12 weeks, 330-360 g, were offered a fruit flavored jello cube twice a day for 1 week prior to the surgery and were separated in individual cages 3 days before the surgery. Rats were induced with 5% isoflurane in 95% oxygen flowing at a rate of 1 liter per minute and maintained at 3.5% isoflurane in 96.5% oxygen. The anaesthetized rats had the skin on the back shaved and prepared for surgery with 70% ethyl alcohol and 10% iodine swabs. The skin was cut over the caudal thoracic and lumbar spine and spinal muscles dissected from the vertebral spine of the thoracic 10 (T10) vertebrum and the dorsal arches of this vertebrum removed. A 3Fogarty catheter was inserted via this laminectomy over the intact dura towards the head to place the caudal edge of the 3 mm long balloon at 1 cm rostral to the laminectomy. The balloon was inflated with 15 µL of sterile saline for 3 minutes, then deflated and the catheter removed. The spinal muscles were closed with absorbable sutures over the laminectomy and the skin incision was closed with stainless steel staples. Before awakening, the rats were administered; 50 μL of a painkiller Anafen (ketoprofen, 100 mg/mL, Merial) subcutaneously for pain, and 50 µL of Baytril antibiotic (enrofloxacin 50 mg/mL, Bayer) intramuscular, and 3 mL of saline subcutaneous. In the initial experiment designed to determine the anti-inflammatory effect of 0.2, 1.0 and 5 mg per day of xanthohumol (Sigma-Aldrich) after the surgery, the rats were offered a jello cube with half of the above dose twice a day, at 8-9 hours and 15-16 hours intervals, and the consumption of the jello cube was observed and recorded every day for 7 days. Each treatment group had 5 rats. In the second phase of the experiment 1 jello cube alone or jello cube with 2.5 mg xanthohumol was offered twice a day for 1, 2, 4, 6, and 8 weeks. Each treatment group had 6-7 rats.
At a required experimental time point; 1, 2, 4, 6, or 8 weeks post-surgery, the SCI rats were overdosed with the sodium pentobarbital (80 mg/kg b.w.) administered intraperitoneally. When in deep plane of anaesthesia, the chest was cut open, 100 international units of heparin sodium injected into the left heart ventricle and a cannula with flowing lactated Ringer's solution inserted into the left ventricle while the right auricle was cut open. After the blood was washed out, the flow of the lactated Ringer's solution was replaced by that of phosphate buffered formalin and the carcass was fixed.
The spine was removed, postfixed in formalin overnight and then placed in formalin supplemented with 8% EDTA, pH 7.0, to decalcify the spinal vertebrae. The decalcifying solution was replaced by fresh one every 2 days for 2 weeks. […]

SCI rats = test: Toxicity observation in SCI rats under oral xanthohumol; type: in vivo; details: twice a day, 5 mg per day (approx. 15 mg/kg), up to 8 weeks
From the text: as §1, with “removed. A 3Fogarty catheter was inserted via this laminectomy over the intact dura towards the head to place the caudal edge of the 3 mm long balloon at 1 cm rostral to the laminectomy. The balloon was inflated with 15 µL of sterile saline for 3 minutes, then deflated and the catheter removed.” for “removed.”

[6] = cited from earlier work; for bioavailability: Wistar rats
[7] = cited from earlier work
rats = details: cited from earlier work
mice = details: cited from earlier work
[8] = cited from earlier work; remark: listed apart in the source

COc1cc(O)c(CC=C(C)C)c(O)c1C(=O)/C=C/c1ccc(O)cc1 [xanthohumol, 2′,4′,4-trihydroxy-6′-methoxy-3′-prenylchalcone]
Hind End Locomotor test score (0-6) vs untreated rats [1]: significantly higher scores | Toe Pinch Withdrawal test score (0-6) vs untreated rats [2]: statistically better | recovery of the urinary bladder function vs untreated rats ([3]; 4 weeks treatment group): significantly faster | recovery of the urinary bladder function vs untreated rats ([3]; 6 weeks treatment group): tendency for the paralyzed urinary bladder to recover faster than in controls | body weight change vs untreated controls ([4]; groups 1, 2 and 8 weeks post-SCI): no statistical difference | body weight recovery post-surgery vs untreated controls ([4]; groups treated for 4 and 6 weeks): recovered statistically sooner and to a greater degree | macrophage numbers in the COI, % of the untreated controls (100%) ([5]; 0.2 mg/rat/day oral, not statistically significant): 73.7% | macrophage numbers in the COI, % of the untreated controls (100%) ([5]; 1.0 mg/rat/day oral, p=0.026): 63.9% | macrophage counts in the COI, % of the controls ([5]; 5 mg/rat/day oral, 1 week post-SCI, second phase): 57.0% | macrophage counts in the COI, % of the controls ([5]; 5 mg/rat/day oral, 2 weeks post-SCI): 60.7% | macrophage counts in the COI, % of the controls ([5]; 5 mg/rat/day oral, 4 weeks post-SCI): 14.1% | macrophages in the COI on histologic sections (FIG. 7) ([5]; 5 mg/rat/day oral, 6 and 8 weeks post-SCI): rare or absent | macrophage counts in the COI, % of the controls ([5]; 5 mg/rat/day oral, 6 weeks post-SCI): 22.9% | macrophage counts in the COI, % of the controls ([5]; 5 mg/rat/day oral, 8 weeks post-SCI, not statistically different): 32.7% | macrophage numbers in the COI, % of the untreated controls (100%) ([5]; 5.0 mg/rat/day oral, dose-response study, p=0.0013): 53.8% | toxicity of xanthohumol (SCI rats): not observed | half-life ([6]; 10 mg/kg intravenously): 7.67 h | bioavailability ([6]; oral 40 mg/kg): 1.16% | bioavailability ([6]; oral 200 mg/kg): 0.53% | bioavailability after oral administration [7]: approximately 1% | toxic effect of daily oral administration (rats; 16.9 mg/kg body weight daily oral): no toxic effect | toxicity after long administration of large doses (rats): no toxicity | toxicity after long administration of large doses (mice): no toxicity | solubility in water [8]: poorly
